The values that follow come from patent publication US7371729B2, “Boronic acid salts useful in parenteral formulations” (Trigen Limited, priority 2002, dated 2008).

The nature of series [1]: Stability: HPLC-PDA assay before and after drying over phosphorus pentoxide for 1 week. The format is physicochemical. On the procedure: An assay of TRI 50c and its sodium and lysine salts before and after drying.
For sample analysis, 5 mg of dried and non-dried material was weighed in a 5 mL volumetric flask and dissolved in 1 mL acetonitrile and filled up with demineralised water to 5 mL.
The quantitative evaluation was performed using an HPLC-PDA method.

Series [2] can be described thus: Tolerability in beagle dogs after i.v. dose. The conditions noted are these: dog, 1.0 mg/kg i.v., total duration of the study. The format is in vivo. On the procedure: Blood samples were taken into 3.8% tri-sodium citrate (1+8) at pre dose, 2, 5, 10, 20, 30, minutes post dose and then at 1, 2, 3, 4, 6, 8, 12 and 24 hours post dose. Plasma was prepared by centrifugation and frozen at minus 20° C. pending analysis.

A further series can be described thus: Rat tail bleeding model. The format is in vivo. On the procedure:
Bleeding times were determined in a rat tail bleeding model following intravenous administration of heparin and TRI 50b. The doses employed were chosen on the basis of their efficacy in the rat Wessler and dynamic models and were as follows:
Rats were anaesthetised with sodium pentabarbitone at 60 mg/kg (2.0 ml/kg of 30 mg/ml solution by ip. injection). Supplemental anaesthetic was given ip. as required.
A jugular vein was cannulated for the administration of test compound. The trachea was also cannulated with a suitable cannula and the animals allowed to breathe ‘room air’ spontaneously.
These were given in the appropriate vehicle at 1.0 ml/kg intravenously. Heparin was administered in saline, whilst TRI 50b was dissolved in ethanol, and then the resultant solution added to water for injection (1 part ethanol to 5 parts water).
Two minutes following compound administration the distal 2 mm of the animal's tail was sectioned with a new scalpel blade and the tail immersed in warm saline (37° C.) contained in a standard ‘universal’ container, so that the blood stream was clearly visible. The bleeding time recording was started immediately following transection until the cessation of blood flow from the tip of the tail.

Series [3] is described as follows: Hydrolysis of TRI 50b in acid conditions (HPLC assay). The format is physicochemical. The settings on record: for example of an HPLC assay. The source says: It has been discovered that TRI 50b tends to hydrolyse.
Series [4] has as its system platelet procoagulant activity. Briefly: Inhibition of platelet procoagulant activity (washed platelets, prothrombin activation). Type of series: cell-based. The settings on record: agonist Thrombin (1.15 nM). The source says:
Platelet pro-coagulant activity may be observed as the increase, in rate of activation of prothrombin by factor Xa in the presence of factor Va upon the addition of platelets pretreated with thrombin, caused by thrombin alone, collagen alone or a mixture of thrombin and collagen. This property is due to an increase in anionic phospholipid on the surface of the platelet with concomitant release of microvesicle from the surface. This is an essential physiological reaction and people whose platelets have reduced ability to generate procoagulant activity (Scott syndrome) show an increased tendency for bleeding.
Washed platelets were treated with either 1.15 nM thrombin, 23 μg/ml collagen or a mixture of both at the same concentration at 37° C. TRI 50b was added either for 1 minute prior to the addition of activator or immediately after the incubation with activator. Platelet procoagulant activity was determined as described previously (Goodwin C A et al, Biochem J. 1995 8, 308: 15-21).

The next series has as its system platelet rich thrombus. Nature of the series: Rabbit extracorporeal shunt model. The format is in vivo. The source says: The technique describes an animal model in which a platelet rich thrombus is produced. The activity of TRI 50b and heparin are compared.
The carotid artery and jugular vein of anaesthetised rabbits were used to create an extracorporeal circuit containing a suspended foreign surface (silk thread). Thrombus deposition is initiated by creation of high sheer stress turbulent arterial blood flow, platelet activation, followed by coagulation in the presence of thrombogenic surfaces. Histopathological studies have shown that the thrombus is platelet rich.
NZW rabbits (males 2.5-3.5 kg) were used. The animals were allowed food and water up to the induction of anaesthesia.
Animals were premedicated with […] (Hypnorm) 0.15 ml total by intramuscular injection. General anaesthesia was induced with methohexitone (10 mg/ml) to effect, followed by endotracheal intubation. Anaesthesia was maintained with isoflurane (1-2.0%) carried in oxygen/nitrous oxide.
The animals were placed in dorsal recumbency and the ventral cervical region prepared for surgery. The left carotid artery and right jugular vein were exposed. The artery was cannulated with a large Portex® catheter (yellow gauge), cut to a suitable length. The vein was cannulated with a Silastic® catheter. The shunt comprised of a 5 cm length of ‘auto analyser’ line (purple/white gauge). Joins to the shunt on the arterial side were made with intermediate size Silastic® tubing. The shunt was filled with saline before exposure to the circulation. The right femoral artery was cannulated for the measurement of blood pressure.
The central section of the shunt contained a thread 3 centimetres in length. This consisted of 000 gauge Gutterman sewing silk so as to give four strands with a single knot at the end. (The knot section was outside the shunt).
Blood flow velocity was determined by use of ‘Doppler’ probes (Crystal Biotech). A silastic probe was positioned over the carotid artery at the point of insertion of the arterial catheter. Flow was recorded on a chart recorder using heat sensitive paper.

For the next series, the target named is human α-thrombin (Homo sapiens, UniProt P00734). The conditions noted are these: reported by J. Deadman et al, J. Med. Chem. 1995; cited from earlier work.
Series [5] is described as follows: i.v. pharmacokinetics in rats. Type of series: in vivo. The conditions noted are these: plasma, rat, 1.0 mg/kg iv; for half-life: read-out: Elimination half life; for MRT: read-out: Mean Residence Time (converted). How it is done: Rats, body weight circa 250-300 g were used.
Both compounds were given at a dose of 1.0 mg/kg iv.
This was dosed at 1.33 ml/kg (equivalent to 30 mg/kg).

A further series relates to washed platelets. Briefly: Aggregation of washed platelets. Type of series: cell-based.
The next series addresses T1, Thrombin (Homo sapiens, UniProt P00734).
T1 construct: Thrombin obtained from HTI, via Cambridge Bioscience; purchased HTI, via Cambridge Bioscience
Nature of the series: Thrombin amidolytic assay (Vmax, S2238). The format is biochemical. The conditions noted are these: FIG. 1; TRI 50b as external control. On the procedure:
Chromogenic substrate S2238 dissolved to 4 mM (25 mg+10 mI) in water. Diluted to 50 μM with assay buffer for use in assay at 5 μM. (S2238 is H-D-Phe-Pip-Arg-pNA).
Thrombin obtained from HTI, via Cambridge Bioscience, and aliquoted at 1 mg/ml with assay buffer. Dilute to 100 ng/ml with assay buffer and then a further 1 in 3 for use in the assay.

pIC50, pKi: −log10 of the molar value. Where a name gives a salt, the structure may show the parent alone. Read-outs that look alike come from different tables or passages of the source.

On to `COCCC[C@H](NC(=O)[C@@H]1CCCN1C(=O)[C@@H](Cc1ccccc1)NC(=O)OCc1ccccc1)B(O)O` [TRI 50c sodium salt, Cbz-(R)-Phe-(S)-Pro-(R)-Mpg-B(OH)2 monosodium salt], for which the “stability: effect of drying on purity” value in series [1] (in words) was “not significantly reduced”. For the same compound, the tolerability entry in series [2] is listed as “tolerated well with no adverse events”.

For orientation: pIC50 means the IC50 on a negative log10 scale, so that one unit is a factor of ten. One may read the pKi as the negative decadic logarithm of the Ki, by convention in mol/L. What is called clearance is a measure of how efficiently the substance is removed, as volume per time. A higher clearance goes with efficient removal. The half-life is how long it takes for the measured level to halve. Consider `COCCC[C@H](NC(=O)[C@@H]1CCCN1C(=O)[C@@H](Cc1ccccc1)NC(=O)OCc1ccccc1)B1OC(C)(C)C(C)(C)O1` [TRI 50b, Cbz-(R)-Phe-Pro-BoroMpg-OPinacol], for which the “Bleeding time min (±SEM)” value came out at 11.3 ± 1.2 min in the series “Rat tail bleeding model” (5 mg/kg iv) and 30.4 ± 5.2 min in “Rat tail bleeding model” (10 mg/kg iv). Besides, the “hydrolysis to the acid form, half life” value in series [3] was “short half life”. The pIC50 is 8.10 in [4] (TRI 50b added 1 minute prior to activator, read-out: IC50 plus pre-incubation) and 5.52 in series [4] (TRI 50b added after incubation with activator, read-out: IC50 without incubation). For the same compound, the “ANTITHROMBOTIC ACTIVITY” value with platelet rich thrombus (3.0 mg/kg iv) and with platelet rich thrombus (10 mg/kg iv) was “Active” each time. For the same compound, the “bleeding in shunt model” value with platelet rich thrombus (3 mg/kg to 10 mg/kg iv) is on record as “without bleeding”. Besides, the pKi at human α-thrombin is 8.15. Moreover, the clearance in series [5] amounted to 10 mL/min/kg. Besides, the half-life in series [5] was determined as 35 min. Also, in series [5], the MRT was 46 min. Moreover, the “effect on ADP, collagen or epinephrine induced aggregation of washed platelets” value with washed platelets is reported as “does not have an effect”.

Turning to `COCCC[C@H](NC(=O)[C@@H]1CCCN1C(=O)[C@@H](Cc1ccccc1)NC(=O)OCc1ccccc1)B(O)O` [TRI 50c, Cbz-(R)-Phe-(S)-Pro-(R)-boroMpg-OH], the “Purity (% area)” value in series [1] (non-dried) came to 85.54 % area. This compound showed an Amount in [1] (non-dried, 5 mg in 5 mL) of 947.3 µg/mL. In addition, in series [5], the clearance is 11.3 mL/min/kg, the half-life is 36.6 min and the MRT is 45 min.

On to `COCCC[C@H](NC(=O)[C@@H]1CCCN1C(=O)[C@@H](Cc1ccccc1)NC(=O)OCc1ccccc1)B([O-])O.COCCC[C@H](NC(=O)[C@@H]1CCCN1C(=O)[C@@H](Cc1ccccc1)NC(=O)OCc1ccccc1)B([O-])O.[Mg+2]` [magnesium salt of TRI 50c], for which the “activity in thrombin amidolytic assay (Vmax)” value on Thrombin is “same activity as TRI 50b”.
